Earlier results in patent US20210198629A1, “COMPOSITIONS AND METHODS FOR INCREASING BEIGING OF WHITE ADIPOSE TISSUE” (University of Georgia Research Foundation, Inc., priority 2018, published 2021).
Read-outs that look alike come from different tables or passages of the source.

Columns and labels:
Ucp1 = details: cited from earlier work
BRD9 = biological target: T1, BRD9 (Homo sapiens, UniProt Q9H8M2); details: cited from earlier work
T1 sequence (Q9H8M2 1-597): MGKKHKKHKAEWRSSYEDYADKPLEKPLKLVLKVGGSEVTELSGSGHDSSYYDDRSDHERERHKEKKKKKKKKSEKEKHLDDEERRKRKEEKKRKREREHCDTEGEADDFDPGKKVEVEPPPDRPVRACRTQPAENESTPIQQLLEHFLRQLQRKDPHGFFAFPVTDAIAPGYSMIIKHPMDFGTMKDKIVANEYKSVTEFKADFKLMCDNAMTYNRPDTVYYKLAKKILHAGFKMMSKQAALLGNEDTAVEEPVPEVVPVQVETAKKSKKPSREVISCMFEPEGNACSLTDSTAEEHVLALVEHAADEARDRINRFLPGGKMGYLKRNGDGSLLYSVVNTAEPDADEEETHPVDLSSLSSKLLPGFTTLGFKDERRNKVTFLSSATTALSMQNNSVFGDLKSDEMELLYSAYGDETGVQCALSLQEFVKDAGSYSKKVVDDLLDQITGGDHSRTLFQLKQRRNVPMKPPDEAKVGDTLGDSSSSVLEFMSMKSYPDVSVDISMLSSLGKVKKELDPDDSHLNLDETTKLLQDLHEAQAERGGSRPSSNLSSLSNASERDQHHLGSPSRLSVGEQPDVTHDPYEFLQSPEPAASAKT

rhabdoid tumor cells = details: combinatorial treatment with cytostatic compounds (e.g., cisplatin); cited from earlier work
[1] = system: EGFR mutant PC9 cancer cells; details: cited from earlier work

COc1ccc(Br)cc1/C=C1\SC(=O)N(Cc2ccc(C)cc2)C1=O [GQ-16]
WAT beiging, increase of Ucp1 (Ucp1; oral administration 40 mg/kg/d, for 14 days): 5 fold

C=C(c1ccc(C(=O)O)cc1)c1cc2c(cc1C)C(C)(C)CCC2(C)C [Bexarotene]
WAT beiging, increase of Ucp1 (Ucp1; oral administration 50 mg/kg/d, for 28 days, only in subcutaneous WATs): 1.5 fold

CCc1cc2c(c(CC)n1)CCC(=O)N2Cc1ccc(-c2ccccc2-c2nn[nH]n2)cc1 [ZD7155]
WAT beiging, increase of Ucp1 (Ucp1; intraperitoneal injection 1 mg/kg/d for 14 days): less than 2 fold

CCn1cc(-c2cccc(C(F)(F)F)c2)c2sc(C(=N)NC3CCS(=O)(=O)CC3)cc2c1=O [I-BRD9, N′-(1,1-dioxothian-4-yl)-5-ethyl-4-oxo-7-[3-(trifluoromethyl)phenyl]thieno[3,2-c]pyridine-2-carboximidamide]
selectivity over the BET family (BRD9; BRD9 vs BET family): > 700 fold | selectivity over the highly homologous BRD7 (BRD9; BRD9 vs BRD7): 200 fold | proliferation of rhabdoid tumor cells (rhabdoid tumor cells): synergistically inhibit

CC[C@H](CO)Nc1nc(NCc2ccccc2)c2ncn(C(C)C)c2n1 [Roscovitine]
WAT beiging (Ucp1; intraperitoneal injection 50 mg/kg/d for 42 days): induced WAT beiging

C/C=C/Cn1cc(-c2cc(OC)c(C(=O)N3CCOCC3)cc2OC)c2cc[nH]c2c1=O [GNE-375]
drug resistance development ([1]; EGFR mutant PC9 cancer cells): prevent the drug resistance development | cell viability ([1]; PC9 study): little effects | expression of ALDH1A1 ([1]; PC9 study): decreases | global gene expression ([1]; PC9 study): little effects
